According to the Bradley open melting point set (2014):
Several values for one entry are separate records, joined by “and”; a condition that tells them apart may be missing. Identical values can stand only once. Counter-ions that a name gives are not always drawn.

| SMILES | melting point |
| --- | --- |
| Clc1ccccc1 [Chlorobenzene] | -45 °C |
| O=C(O)c1cc(=O)[nH]c(=O)[nH]1 [Cholergol] | 345 °C |
| COC(=O)[C@@H]1C2CCC(C[C@@H]1OC(=O)c1ccccc1)N2C (some centres not stated) [Cocaine] | 195 °C |
| COc1ccc2c3c1O[C@H]1[C@@H](O)C=C[C@H]4[C@@H](C2)N(C)CC[C@@]341 [Codeine] | 155 °C |
| C[C@]12CCC(=O)C=C1CC[C@@H]1[C@@H]2C(=O)C[C@@]2(C)[C@H]1CC[C@]2(O)C(=O)CO [Cortisone] | 225 °C |
| C1CCCCC1 [Cyclohexane] | 7 °C |
| O=C1CCCCC1 [Cyclohexanone] | -32 °C and -31 °C |
| NC1(C(=O)O)CCCC1 [Cycloleucine] | 330 °C |
| C1CCCC1 [Cyclopentane] | -94 °C |
| OC1CCCC1 [Cyclopentanol] | -19 °C |
| C1=CCCC1 [Cyclopentene] | -135 °C |
| NC1CONC1=O (configuration not stated) [Cycloserine] | 147 °C |
| O=C[C@@H](O)[C@H](O)[C@H](O)CO [D-arabinose] | 156 °C |
| O=C[C@H](O)[C@@H](O)[C@@H](O)[C@H](O)CO [D-galactose] | 167 °C |
| O=C[C@H](O)[C@@H](O)[C@H](O)[C@H](O)CO [D-glucose, anhydrous] | 151 °C |
| O[C@@H]1CO[C@H]2[C@@H]1OC[C@@H]2O [D-isosorbide] | 60 °C |
| O=C(O)C[C@@H](O)C(=O)O [D-malic acid] | 102 °C |
| OC[C@H]1OC(O)[C@@H](O)[C@@H](O)[C@@H]1O (stereo partly drawn) [D-mannose] | 130 °C |
| O=C[C@H](O)[C@H](O)[C@H](O)CO [D-ribose] | 84 °C |
| O=C(CO)[C@@H](O)[C@@H](O)[C@H](O)CO [D-tagatose] | 135 °C |
| O=C(O)[C@@H](O)[C@H](O)C(=O)O [D-tartaric acid] | 168 °C |
| OC1OC[C@@H](O)[C@H](O)[C@H]1O (stereo partly drawn) [D-xylose] | 149 °C |
| Cc1c2oc3c(C)ccc(C(=O)NC4C(=O)NC(C(C)C)C(=O)N5CCCC5C(=O)N(C)CC(=O)N(C)C(C(C)C)C(=O)OC4C)c3nc-2c(C(=O)NC2C(=O)NC(C(C)C)C(=O)N3CCCC3C(=O)N(C)CC(=O)N(C)C(C(C)C)C(=O)OC2C)c(N)c1=O (configuration not stated) [Dactinomycin] | 242 °C |
| C[C@]12CC[C@H]3[C@@H](CCC4=CC(=O)CC[C@@]43C)[C@@H]1CC[C@@H]2C(=O)CO [Deoxycorticosterone] | 142 °C |
| CC(C)(C)OOC(C)(C)C [Di-tert-butyl peroxide] | -40 °C |

| SMILES | melting point |
| --- | --- |
| CCOC(=O)/C=C/C(=O)OCC [Diethyl (2E)-but-2-enedioate] | 1 °C |
| CCOC(=O)C(=O)OCC [Diethyl oxalate] | -41 °C |
| C[C@H]1O[C@@H](O[C@H]2[C@@H](O)C[C@H](O[C@H]3[C@@H](O)C[C@H](O[C@H]4CC[C@@]5(C)[C@H](CC[C@@H]6[C@@H]5C[C@@H](O)[C@]5(C)C(C7=CC(=O)OC7)CC[C@]65O)C4)O[C@@H]3C)O[C@@H]2C)C[C@H](O)[C@@H]1O (some centres not stated) [Digoxin] | 249 °C |
| COc1ccc2c3c1O[C@H]1[C@@H](O)CC[C@H]4[C@@H](C2)N(C)CC[C@@]341 [Dihydrocodeine] | 112 °C |
| COP(=O)(OC)C(O)C(Cl)(Cl)Cl (configuration not stated) [Dimethyl (2,2,2-trichloro-1-hydroxyethyl)phosphonate] | 83 °C |
| COC [Dimethyl ether] | -138 °C |
| COC(=O)CC(=O)OC [Dimethyl malonate] | -62 °C |
| Cc1ncc([N+](=O)[O-])n1C [Dimetridazole] | 140 °C |
| [SiH3][SiH3] [Disilane] | -133 °C |
| CC(N)=S [Ethanethioamide] | 115 °C |
| CCOC(=O)CC(C)=O [Ethyl 3-oxobutanoate] | -43 °C |
| CCOC(N)=O [Ethyl carbamate] | 49 °C |
| COc1cc(C(=O)O)cc(OC)c1OC [Eudesmic acid] | 172 °C |
| C=C1C[C@@H]2[C@H](CC[C@]3(C)C(=O)CC[C@@H]23)[C@@]2(C)C=CC(=O)C=C12 [Exemestane] | 155 °C |
| COP(=S)(OC)Oc1cc(Cl)c(Cl)cc1Cl [Fenchlorphos] | 38 °C |
| O=c1[nH]c(=O)n([C@H]2C[C@H](O)[C@@H](CO)O2)cc1F [Floxuridine] | 150 °C |
| O=c1[nH]cc(F)c(=O)[nH]1 [Fluorouracil] | 281 °C |
| Nc1nc(=O)c2ncn(COC(CO)CO)c2[nH]1 [Ganciclovir] | 250 °C |
| N[C@@H](CCC(=O)N[C@@H](CS)C(=O)NCC(=O)O)C(=O)O [Glutathione] | 194 °C |
| NCC(=O)O [Glycine] | 240 °C |
| COc1cc(OC)c2c(c1Cl)O[C@]1(C2=O)C(OC)CC(=O)C[C@H]1C (some centres not stated) [Griseofulvin] | 220 °C |
| COC1=CC(=O)C[C@@H](C)[C@]12Oc1c(Cl)c(OC)cc(OC)c1C2=O [Griseofulvin] | 220 °C |
| ClC1=C(Cl)C2(Cl)C3C4OC4C(Cl)C3C1(Cl)C2(Cl)Cl (configuration not stated) [Heptachlor epoxide] | 160 °C |
| Brc1c(Br)c(Br)c(Br)c(Br)c1Br [Hexabromobenzene] | 306 °C |

Continued, values first:

| melting point | SMILES |
| --- | --- |
| 148 °C | CC(C)CCC[C@@H](C)[C@H]1CC[C@H]2[C@@H]3CC=C4C[C@@H](O)CC[C@]4(C)[C@H]3CC[C@]12C [Cholesterol] |
| 130 °C | Clc1cccc(Cl)c1NC1=NCCN1 [Clonidine] |
| 210 °C | CCC(C)CCCC(=O)N[C@@H](CCN)C(=O)N[C@H](C(=O)N[C@@H](CCN)C(=O)N[C@H]1CCNC(=O)[C@H]([C@@H](C)O)NC(=O)[C@H](CCN)NC(=O)[C@H](CCN)NC(=O)[C@H](CC(C)C)NC(=O)[C@@H](CC(C)C)NC(=O)[C@H](CCN)NC1=O)[C@@H](C)O (some centres not stated) [Colistin] |
| 274 °C | N[C@H](Cc1ccccc1)C(=O)O [D-Phenylalanine] |
| 235 °C | N=C(N)NCCC[C@@H](N)C(=O)O [D-arginine] |
| -66 °C | C=CCCCCCCCC [Dec-1-ene] |
| 31 °C | CCCCCCCCCC(=O)O [Decanoic acid] |
| 26.5 °C | COC(=O)CCCCCCCCC(=O)OC [Dimethyl sebacate] |
| 186 °C | CN(C)CC(=O)O [Dimethylglycine] |
| 66 °C | OC(c1ccccc1)c1ccccc1 [Diphenylmethanol] |
| 159 °C | CN(C)C(=O)Nc1ccc(Cl)c(Cl)c1 [Diuron] |
| 232 °C | CC(=O)O[C@@]12CO[C@@H]1C[C@H](O)[C@@]1(C)C(=O)[C@H](O)C3=C(C)[C@@H](OC(=O)[C@H](O)[C@@H](NC(=O)OC(C)(C)C)c4ccccc4)C[C@@](O)([C@@H](OC(=O)c4ccccc4)[C@H]21)C3(C)C [Docetaxel] |
| 129 °C | O=C(O)CCCCCCCCCCC(=O)O [Dodecanedioic acid] |
| 132 °C | CCCCCCCCCCCC[N+](C)(C)[O-] [Dodecyl(dimethyl)amine oxide] |
| -7 °C | CCCCCCCCCCCCc1ccccc1 [Dodecylbenzene] |
| 290 °C | COc1cc2nc(N3CCN(C(=O)C4COc5ccccc5O4)CC3)nc(N)c2cc1OC (configuration not stated) [Doxazosin] |
| 201 °C | C[C@H]1c2cccc(O)c2C(=O)C2=C(O)[C@]3(O)C(=O)C(C(N)=O)=C(O)[C@@H](N(C)C)[C@@H]3[C@@H](O)[C@@H]21 [Doxycycline] |
| 212 °C | CNC[C@H](O)c1ccc(O)c(O)c1 [Epinephrine] |
| 176 °C | C[C@]12CC[C@@H]3c4ccc(O)cc4CC[C@H]3[C@@H]1CC[C@@H]2O [Estradiol] |
| 183 °C | C#C[C@]1(O)CC[C@H]2[C@@H]3CCc4cc(O)ccc4[C@H]3CC[C@@]21C [Ethinyl Estradiol] |
| 138 °C | CCOC(=O)C(C#N)=Cc1ccc(Cl)cc1 [Ethyl 3-(4-chlorophenyl)-2-cyanoacrylate] |
| 89 °C | CCOC(=O)c1ccc(N)cc1 [Ethyl 4-aminobenzoate] |

| melting point | SMILES |
| --- | --- |
| 82 °C | CCOC(=O)C1=CC(C)N=N1 (configuration not stated) [Ethyl 5-methyl-1H-pyrazole-3-carboxylate] |
| 77 °C | CCOC(=O)/C=C/c1ccccc1N [Ethyl (2E)-3-(2-aminophenyl)acrylate] |
| 124 °C | CCOC(=O)/C(C#N)=C\c1ccc(-c2ccc(C)cc2)o1 [Ethyl (2Z)-2-cyano-3-[5-(4-methylphenyl)-2-furyl]acrylate] |
| 162 °C | CCOC(=O)/C(C#N)=N\Nc1ccc(Cl)cc1 [Ethyl (2Z)-[(4-chlorophenyl)hydrazono](cyano)acetate] |
| 156 °C | CCOC(=O)/C(C#N)=N\Nc1cccc([N+](=O)[O-])c1 [Ethyl (2Z)-cyano[(3-nitrophenyl)hydrazono]acetate] |
| 65 °C | CCOC(=O)Nc1ccc(C)cc1[N+](=O)[O-] [Ethyl (4-methyl-2-nitrophenyl)carbamate] |
| -93 °C | CCCC(=O)OCC [Ethyl butyrate] |
| 103 °C | CC(=O)OCC(CCn1cnc2cnc(N)nc21)COC(C)=O [Famciclovir] |
| 164 °C | N/C(N)=N/c1nc(CSCCC(N)=N/S(N)(=O)=O)cs1 [Famotidine] |
| 152 °C | NC(=O)OCC(COC(N)=O)c1ccccc1 [Felbamate] |
| 125 °C | O=C(O)c1ccccc1Nc1cccc(C(F)(F)F)c1 [Flufenamic Acid] [listing 1 of 2 here] |
| 134 °C | O=C(O)c1ccccc1Nc1cccc(C(F)(F)F)c1 [Flufenamic Acid] [listing 2 of 2 here] |
| -40 °C | Fc1ccccc1 [Fluorobenzene] |
| 114 °C | CC(C(=O)O)c1ccc(-c2ccccc2)c(F)c1 (configuration not stated) [Flurbiprofen] |
| 272 °C | CCC(=O)O[C@]1(C(=O)SCF)[C@H](C)C[C@H]2[C@@H]3C[C@H](F)C4=CC(=O)C=C[C@]4(C)[C@@]3(F)[C@@H](O)C[C@@]21C [Fluticasone Propionate] |
| 250 °C | Nc1nc(=O)c2nc(CNc3ccc(C(=O)N[C@@H](CCC(=O)O)C(=O)O)cc3)cnc2[nH]1 [Folic Acid] |
| 148 °C | O=C(CCCN1CCC(O)(c2ccc(Cl)cc2)CC1)c1ccc(F)cc1 [Haloperidol] |
| -33 °C | CCCC(=O)CCC [Heptan-4-one] |
| 125 °C | O=C(O)CCCCCCCCCCCCCCC(=O)O [Hexadecanedioic acid] |
| -23 °C | CCCCCCN [Hexan-1-amine] |
| 45 °C | OCCCCCCO [Hexane-1,6-Diol] |
